# According to patent US7763602B2, “Pyrrole derivatives as antimycobacterial compounds” (priority 2002, dated 2010):
# Read-outs that look alike come from different tables or passages of the source.
# Assays:
# [1] = test system: M. tuberculosis clinical isolates, resistant; test: microbe, parasite or virus in culture; type: cell-based, Mycobacterium tuberculosis; details: for MIC (μg/ml) against Clinical isolates Resistant: Table I, agar dilution; for MIC: Mycobacterium tuberculosis
# [2] = test system: M. tuberculosis (Resistant strain); type: in vivo, mice; details: Table V; for Mean Log10 No. of CFU Lung / Mean Log10 No. of CFU Spleen: 5 day/week for 4 week, treated 01 day post-infection; for Mean Log10 No. of reduction Lung / Mean Log10 No. of reduction Spleen: difference from early controls
# [3] = read-out: MIC (μg/ml) against Clinical isolates Resistant
# [4] = read-out: MIC (μg/ml) M. tuberculosis Resistant (n = 26)
structure (smiles),measurement,setting,value
"Cc1c(CN2CCN(Cc3ccc4c(c3)OCO4)CC2)cc(-c2ccc(Cl)cc2)n1-c1ccc(F)cc1F [compound 50, 5-[(4-{[1-(2,4-difluorophenyl)-5-(4-chlorophenyl)-2-methylpyrrol-3-yl]-methyl}-piperazinyl)methyl]-2H-benzo[d]1,3-dioxolane]",MIC (μg/ml) against Clinical isolates Resistant,[1],4.0 to 16.0 µg/mL
"Cc1c(CN2CCN(c3ccccn3)CC2)cc(-c2ccccc2)n1-c1ccc(F)cc1F [compound 54, 1-{[1-(2,4-difluorophenyl)-2-methyl-5-phenylpyrrol-3-yl]methyl}-4-(2-pyridyl) piperazine]",MIC,[1]; [3],4 µg/mL
"Cc1c(CN2CCN(c3ncccn3)CC2)cc(-c2ccc(Cl)cc2)n1-c1ccc(Cl)cc1 [compound 5, 1-{[1,5-bis(4-chlorophenyl)-2-methylpyrrol-3-yl]methyl}-4-(2-pyrimidyl) piperazine]",MIC,[1]; [4],1 to 2 µg/mL
same,MIC,[1]; [3],0.5 to 2 µg/mL
"NNC(=O)c1ccncc1 [Isoniazid, reference compound]",Mean Log10 No. of CFU Lung,[2]; 12.5 mg/kg,5.8 ± 0.4
same,Mean Log10 No. of CFU Spleen,[2]; 12.5 mg/kg,5.79 ± 0.4
same,Mean Log10 No. of reduction Lung,[2]; 12.5 mg/kg,−1.33
same,Mean Log10 No. of reduction Spleen,[2]; 12.5 mg/kg,−1.16
same,Mean Log10 No. of CFU Lung,[2]; 25 mg/kg,5.12 ± 0.6
same,Mean Log10 No. of CFU Spleen,[2]; 25 mg/kg,5.43 ± 0.5
same,Mean Log10 No. of reduction Lung,[2]; 25 mg/kg,−0.65
same,Mean Log10 No. of reduction Spleen,[2]; 25 mg/kg,−0.8
same,Mean Log10 No. of CFU Lung,[2]; 50 mg/kg,4.43 ± 0.5
same,Mean Log10 No. of CFU Spleen,[2]; 50 mg/kg,4.7 ± 0.31
same,Mean Log10 No. of reduction Lung,[2]; 50 mg/kg,0.04
same,Mean Log10 No. of reduction Spleen,[2]; 50 mg/kg,−0.07
"Cc1c(CN2CCN(c3cccc(C(F)(F)F)c3)CC2)cc(-c2ccc(Cl)cc2)n1-c1ccc(Cl)cc1 [Compound No. 3, 1-{[1,5-bis(4-chlorophenyl)-2-methylpyrrol-3-yl]methyl}-4-(3-trifluoromethylphenyl)piperazine]",Mean Log10 No. of CFU Lung,[2]; 12.5 mg/kg,2.98 ± 0.5
same,Mean Log10 No. of CFU Spleen,[2]; 12.5 mg/kg,2.91 ± 0.4
same,Mean Log10 No. of reduction Lung,[2]; 12.5 mg/kg,1.49
same,Mean Log10 No. of reduction Spleen,[2]; 12.5 mg/kg,1.72
same,Mean Log10 No. of CFU Lung,[2]; 25 mg/kg,2.3 ± 0.17
same,Mean Log10 No. of CFU Spleen,[2]; 25 mg/kg,2.2 ± 0.31
same,Mean Log10 No. of reduction Lung,[2]; 25 mg/kg,2.17
same,Mean Log10 No. of reduction Spleen,[2]; 25 mg/kg,2.43
same,Mean Log10 No. of CFU Lung,[2]; 50 mg/kg,1.99 ± 0.3
same,Mean Log10 No. of CFU Spleen,[2]; 50 mg/kg,1.97 ± 0.4
same,Mean Log10 No. of reduction Lung,[2]; 50 mg/kg,2.48
same,Mean Log10 No. of reduction Spleen,[2]; 50 mg/kg,2.66
same,MIC,[1]; [4],0.25 to 0.5 µg/mL
same,MIC,[1]; [3],0.25 to 0.5 µg/mL
"Cc1cc(CN2CCN(c3cccc(C(F)(F)F)c3)CC2)c(-c2ccccc2)n1NC(=O)c1cnccn1 [compound 33, N-(3-{[4-(3-trifluoromethylphenyl)piperazinyl]methyl}-5-methyl-2-phenylpyrrolyl)pyrazin-2-ylcarboxamide]",MIC (μg/ml) against Clinical isolates Resistant,[1],4.0 to 8.0 µg/mL
"Cc1c(CN2CCN(c3ccc(F)cc3)CC2)cc(-c2ccc(Cl)cc2)n1-c1ccc(F)cc1F [compound 44, 1-{[1-(2,4-difluorophenyl)-5-(4-chlorophenyl)-2-methylpyrrol-3-yl]methyl}-4-(4-fluorophenyl)piperazine]",MIC,[1]; [3],2 to 4 µg/mL
"COc1ccccc1N1CCN(Cc2cc(-c3ccc(Cl)cc3)n(-c3ccc(Cl)cc3)c2C)CC1 [Compound No. 2, 1-{[1,5-bis(4-chlorophenyl)-2-methylpyrrol-3-yl]methyl}-4-(2-methoxyphenyl) piperazine]",MIC,[1]; [4],0.25 to 1 µg/mL
same,MIC,[1]; [3],0.25 to 1 µg/mL
"Cc1cc(CN2CCN(c3cccc(C(F)(F)F)c3)CC2)c(-c2ccccc2)n1NC(=O)c1ccncc1 [Compound No. 23, N-(3-{[4-(3-trifluoromethylphenyl)piperazinyl]methyl}-5-methyl-2-phenylpyrrolyl)-4-pyridylcarboxamide]",MIC (μg/ml) against Clinical isolates Resistant,[1],0.25 to 1.0 µg/mL
"Cc1c(CN2CCN(c3ccc(F)cc3)CC2)cc(-c2ccccc2)n1NC(=O)c1ccncc1 [compound 11, N-(3-{[4-(4-fluorophenyl)piperazinyl]methyl}-2-methyl-5-phenylpyrrolyl)-4-pyridylcarboxamide]",MIC (μg/ml) against Clinical isolates Resistant,[1],0.5 to 2.0 µg/mL
"Cc1c(CN2CCN(c3ccccn3)CC2)cc(-c2ccc(Cl)cc2)n1-c1cccc2ccccc12 [compound 61, 1-{[5-(4-chlorophenyl)-2-methyl-1-naphthylpyrrol-3-yl]methyl}-4-(2-pyridyl) piperazine]",MIC (μg/ml) against Clinical isolates Resistant,[1],4.0 to 8.0 µg/mL
"Cc1c(CN2CCN(c3cccc(C(F)(F)F)c3)CC2)cc(-c2ccc(Cl)cc2)n1-c1ccc(F)cc1F [compound 46, 1-{[1-(2,4-difluorophenyl)-5-(4-chlorophenyl)-2-methylpyrrol-3-yl]methyl}-4-(3-trifluoromethylphenyl)piperazine]",MIC,[1]; [3],4 to 16 µg/mL
"Cc1c(CN2CCN(c3ccccn3)CC2)cc(-c2ccc(Cl)cc2)n1-c1ccc(Cl)cc1 [compound 4, 1-{[1,5-bis(4-chlorophenyl)-2-methylpyrrol-3-yl]methyl}-4-(2-pyridyl) piperazine]",MIC,[1]; [3],0.5 to 4 µg/mL
"Cc1cc(CN2CCN(c3cccc(C(F)(F)F)c3)CC2)c(-c2ccccc2)n1-c1ccc(F)cc1F [compound 57, 1-{[1-(2,4-difluorophenyl)-5-methyl-2-phenylpyrrol-3-yl]methyl}-4-(3-trifluoromethylphenyl)piperazine]",MIC,[1]; [3],> 16 µg/mL
"Cc1cc(CN2CCN(c3cccc(C(F)(F)F)c3)CC2)c(-c2ccc(Cl)cc2)n1-c1cccc2ccccc12 [compound 64, 1-{[2-(4-chlorophenyl)-5-methyl-1-naphthylpyrrol-3-yl]methyl}-4-(3-trifluoromethylphenyl)piperazine]",MIC (μg/ml) against Clinical isolates Resistant,[1],>16.0 µg/mL
"Cc1c(CN2CCN(c3cccc(C(F)(F)F)c3)CC2)cc(-c2ccccc2)n1NC(=O)c1ccncc1 [Compound No. 12, N-(3-{[4-(3-trifluoromethylphenyl)piperazinyl]methyl}-2-methyl-5-phenylpyrrolyl)-4-pyridylcarboxamide]",MIC (μg/ml) against Clinical isolates Resistant,[1],0.5 to 1.0 µg/mL
"Cc1c(CN2CCN(C(=O)c3ccco3)CC2)cc(-c2ccc(Cl)cc2)n1-c1ccc(Cl)cc1 [compound 7, 4-{[1,5-bis(4-chlorophenyl)-2-methylpyrrol-3-yl]methyl}piperazinyl-2-furyl-ketone]",MIC (μg/ml) against Clinical isolates Resistant,[1],2.0 to 4.0 µg/mL
"Cc1c(CN2CCN(c3ccccn3)CC2)cc(-c2ccc(Cl)cc2)n1-c1ccc(F)cc1F [compound 47, 1-{[1-(2,4-difluorophenyl)-5-(4-chlorophenyl)-2-methylpyrrol-3-yl]methyl}-4-(2-pyridyl)piperazine]",MIC,[1]; [3],1 to 4 µg/mL
"Cc1c(CN2CCN(c3ccc(F)cc3)CC2)cc(-c2ccccc2)n1NC(=O)c1cnccn1 [compound 25, N-(3-{[4-(4-fluorophenyl)piperazinyl]methyl}-2-methyl-5-phenylpyrrolyl)pyrazin-2-ylcarboxamide]",MIC (μg/ml) against Clinical isolates Resistant,[1],4.0 µg/mL
"Cc1ccc(Cl)cc1N1CCN(Cc2cc(-c3ccc(Cl)cc3)n(-c3ccc(Cl)cc3)c2C)CC1 [compound 10, 1-{[1,5-bis(4-chlorophenyl)-2-methylpyrrol-3-yl]methyl}-4-(5-chloro-2-methylphenyl) piperazine]",MIC,[1]; [3],1 to 4 µg/mL
"Cc1c(CN2CCN(Cc3ccc4c(c3)OCO4)CC2)cc(-c2ccccc2)n1NC(=O)c1ccncc1 [compound 17, N-(3-{[4-(2H-benzo[d]1,3-dioxolan-5-ylmethyl)piperazinyl]methyl}-2-methyl-5-phenylpyrrolyl)-4-pyridylcarboxamide]",MIC (μg/ml) against Clinical isolates Resistant,[1],4.0 to 8.0 µg/mL
"Cc1cc(CN2CCN(c3ccccn3)CC2)c(-c2ccccc2)n1NC(=O)c1cnccn1 [compound 34, N-(3-{[4-(2-pyridyl)piperazinyl]methyl}-5-methyl-2-phenylpyrrolyl)pyrazin-2-ylcarboxamide]",MIC (μg/ml) against Clinical isolates Resistant,[1],>16.0 µg/mL
"Cc1c(CN2CCN(C)CC2)cc(-c2ccccc2)n1NC(=O)c1ccncc1 [compound 16, N-{2-methyl-3-[(4-methylpiperazinyl)methyl]-5-phenylpyrrolyl}-4-pyridylcarboxamide]",MIC (μg/ml) against Clinical isolates Resistant,[1],4.0 to 16.0 µg/mL
"Cc1c(CN2CCN(Cc3ccccc3)CC2)cc(-c2ccccc2)n1NC(=O)c1ccncc1 [compound 15, N-(2-methyl-5-phenyl-3-{[4-benzylpiperazinyl]methyl}pyrrolyl)-4-pyridylcarboxamide]",MIC (μg/ml) against Clinical isolates Resistant,[1],4.0 to 8.0 µg/mL
